Measurements: patent US20230364051A1, “FORMULATIONS AND METHODS FOR IMPROVING AVIAN HEALTH” (CORNELL UNIVERSITY, priority 2022, published 2023)
Marks after values point to notes of the source that are not given here.

Legend:
[1] = Blood hemoglobin (QuantiChrom Hemoglobin Assay) at hatch after intraamniotic administration; format: in vivo, Gallus gallus; conditions: for Average Hb: day 17, blood at hatch
Protocol: Cornish-cross fertile broiler eggs (Gallus gallus, n = 39) were obtained from a commercial hatchery (Moyer’s chicks, Quakertown, PA, USA). The eggs were incubated under optimal conditions at the Cornell University Animal Science Poultry Farm Incubator [18]. […] Each group was then injected with the specific solution (1 mL per egg) with a 21-gauge needle into the amniotic fluid. Treatments in powder form were separately diluted in DI H2O. […] After injection, the injection holes were sealed with cellophane tape and the eggs were placed in hatching baskets such that each treatment was equally represented at each incubator location. Immediately upon hatch (day 21), blood was taken for hemoglobin determination and all chicks were then euthanized by CO2 exposure. The small intestine, pectoral muscle, cecum, and liver were collected, immediately frozen in liquid nitrogen, and then stored in a -80° C. freezer until analysis.
Blood was collected using micro-hematocrit heparinized capillary tubes (Fisher Scientific, Waltham, MA, USA). Blood Hb concentrations were determined spectrophotometrically using the QuantiChromTM Hemoglobin Assay (DIHB-250, BioAssay Systems, Hayward, CA, USA) following the kit manufacturer’s instructions.

[2] = tested on: gut bacterial populations; conditions: mice fed a high fat diet; cited from earlier work
[3] = tested on: Hepcidin; experiment: Liver gene expression by RT-qPCR: hepcidin; format: in vivo, Gallus gallus; conditions: genistein exposure vs no injection, p < 0.05
Protocol: Cornish-cross fertile broiler eggs (Gallus gallus, n = 39) were obtained from a commercial hatchery (Moyer’s chicks, Quakertown, PA, USA). The eggs were incubated under optimal conditions at the Cornell University Animal Science Poultry Farm Incubator [18]. All animal protocols were approved by Cornell University Institutional Animal Care and Use committee (IACUC #2020-0077). At day 17 of embryonic incubation, eggs containing viable embryos were weighed and divided into 5 groups, with all treatment groups assigned eggs of similar weight frequency distribution. Each group was then injected with the specific solution (1 mL per egg) with a 21-gauge needle into the amniotic fluid. Treatments in powder form were separately diluted in DI H2O. […]
Total RNA was extracted from 30 mg of the proximal duodenal (n=6) or liver tissues (n=6) using Qiagen RNeasy Mini Kit (Qiagen Inc., Valencia, CA) according to the manufacturer’s protocol. […] RNA was quantified by absorbance at 260-280 nm using a NanoDrop 2000 (ThermoFisher Scientific, Waltham, MA). […]
As previously described. cDNA was generated using a 20 uL reverse transcriptase (RT) reaction in a BioRad C1000 touch thermocycler using the Improm-II Reverse Transcriptase Kit (Catalog #A1250; Promega, Madison, WI, USA). […] Genomic DNA contamination was assessed using a RT-PCR assay for the reference of genes samples. […]

With `O=c1c(-c2ccc(O)cc2)coc2cc(O)cc(O)c12` [Genistein, genistein] the “Average Hb” value ([1]; 1.25 wt. % genistein intraamniotic) was 14.98 ± 0.45 ^a g/dL, the “Blood hemoglobin (Hb) levels vs controls” value ([1]; 1.25 wt. % genistein vs No Injection, H2O and 5 wt. % inulin, p < 0.05) was “significantly elevated” and the “Average Hb” value ([1]; 2.5 wt. % genistein intraamniotic) was 14.23 ± 0.79 ^ab g/dL. For the same compound, the “Blood hemoglobin vs controls” value ([1]; 2.5 wt. % genistein vs H2O and 5 wt. % inulin) was “significantly higher”, the “Blood hemoglobin vs control” value ([1]; 2.5 wt. % genistein vs No Injection) was “higher” and the “Gut bacterial populations associated with decreasing levels of lipopolysaccharide” value [2] was “increased”. The “Gene expression of hepcidin” value [3] was “significantly upregulated”.
